This experiment deals with T1, Alkanal monooxygenase alpha chain (Vibrio harveyi, UniProt P07740).
T1 sequence (P07740 whole entry): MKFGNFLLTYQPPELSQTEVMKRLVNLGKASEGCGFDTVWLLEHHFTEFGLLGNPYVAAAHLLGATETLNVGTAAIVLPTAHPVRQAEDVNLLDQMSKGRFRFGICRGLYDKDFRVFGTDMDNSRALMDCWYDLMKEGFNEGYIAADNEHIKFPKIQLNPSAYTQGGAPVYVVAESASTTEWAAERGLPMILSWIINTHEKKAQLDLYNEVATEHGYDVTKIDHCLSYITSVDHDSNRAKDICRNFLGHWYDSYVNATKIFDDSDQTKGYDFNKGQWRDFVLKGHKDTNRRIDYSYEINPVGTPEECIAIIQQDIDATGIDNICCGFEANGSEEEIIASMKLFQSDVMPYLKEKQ
Put plainly: AI-2 quorum sensing inhibitors, bioluminescence, confirmation, luminescence, dose retest, Vibrio harveyi (AID 2735).

The values that follow come from BindingDB's records for doi:10.7270/Q2PG1Q5Z (Broad Institute, 2010).

`CCCc1ccc(S(=O)(=O)N(C)S(=O)(=O)c2ccc(F)cc2)cc1` [N-(4-fluorophenyl)sulfonyl-N-methyl-4-propylbenzenesulfonamide]: the response was half-maximal at 8.81 µM (EC50). With `Cc1cccc(NS(=O)(=O)c2ccc(Oc3ccccc3)cc2)n1` [SMR000071466], the EC50 (in general, the concentration at which the effect is half-maximal) amounted to 12.5 µM. On to `C=Cn1c(C(=O)O)ccc1-c1ccc(CC)cc1`, for which the response was half-maximal at 25.8 µM (EC50). Regarding `Cn1cnc(S(=O)(=O)Nc2ccc(OC(F)(F)F)cc2)c1` [SMR000314513], the EC50 was 24.5 µM. `CCc1ccc(S(=O)(=O)Nc2ccc(Br)cn2)cc1` [MLS001211346]: the midpoint of the response, the EC50, lay at 18.1 µM. Molecule `CN(C)S(=O)(=O)c1ccc(NC(=S)NC(=O)Cc2ccccc2)cc1` [N-[[4-(dimethylsulfamoyl)phenyl]carbamothioyl]-2-phenyl-ethanamide] displayed an EC50 of over 160 µM. In the case of `COc1cc(NC(=O)CN2C(=O)NC(c3ccccc3)(c3ccccc3)C2=O)cc(OC)c1` [MLS001176525], the EC50 turned out to be 10 µM.
